Legend:
STAT3 = test: Immunohistochemistry of ear sections in murine DTH model; format: in vivo, mice; settings: after the sensitization phase
Method: To determine if topical administration of the test compound was sufficient to inhibit activation of the Jak-STAT pathway, immunohistochemistry was carried out on fixed tissues.

[1] = tested on: murine skin contact delayed-type hypersensitivity (DTH) response; test: Murine DTH model for dermatitis, ear swelling; format: in vivo, mice
Method: Certain compounds herein were also tested for their efficacies (of inhibiting Jak targets) in the T-cell driven murine delayed hypersensitivity test model. The murine skin contact delayed-type hypersensitivity (DTH) response is considered to be a valid model of clinical contact dermatitis, and other T-lymphocyte mediated immune disorders of the skin, such as psoriasis (Immunol Today. 1998 January; 19(1):37-44). Murine DTH shares multiple characteristics with psoriasis, including the immune infiltrate, the accompanying increase in inflammatory cytokines, and keratinocyte hyperproliferation. Furthermore, many classes of agents that are efficacious in treating psoriasis in the clinic are also effective inhibitors of the DTH response in mice (Agents Actions. 1993 January; 38(1-2):116-21).
Test compound 3-{(3R,4R)-4-methyl-3-[methyl-(7H-pyrrolo[2,3-d]pyrimidin-4-yl)amino]-piperidin-1-yl}-3-oxo-propionitrile (see, e.g., WO 01/42246, WO 02/00661, or WO 03/48162) was administered continuously using mini-osmotic pumps to deliver the compound at 150 mg/kg/d. The inflammatory response was monitored by measuring the ear thickness prior to and after immune challenge. Differences in ear thickness were calculated for each mouse and then averaged for the group. Comparisons were made between vehicle and the treated groups in the context of the negative controls (challenged without sensitization) and therapeutic positive control mice (treated with dexamethasone or other efficacious agent).
A further murine DTH experiment was conducted by treating mice with 3-{(3R,4R)-4-methyl-3-[methyl-(7H-pyrrolo[2,3-d]pyrimidin-4-yl)amino]-piperidin-1-yl}-3-oxo-propionitrile either systemically or topically (3%, BID) after the sensitization phase was complete.

[2] = tested on: myeloid dendritic cells (DCs); settings: CD40-induced maturation of myeloid DCs; cited from earlier work
[3] = tested on: NOD mouse model of autoimmune type 1 diabetes; settings: cited from earlier work
[4] = tested on: IL-6-dependent MM cell lines; settings: cited from earlier work
[5] = systemic, continuous by mini-osmotic pumps, 150 mg/kg/d

C[C@@H]1CCN(C(=O)CC#N)C[C@@H]1N(C)c1ncnc2[nH]ccc12 [3-{(3R,4R)-4-methyl-3-[methyl-(7H-pyrrolo[2,3-d]pyrimidin-4-yl)amino]-piperidin-1-yl}-3-oxo-propionitrile]
number of infiltrating cells (STAT3; systemic administration): visibly reduced | phosphorylation of STAT3 in all cell types (STAT3; systemic administration): inhibited | number of infiltrating cells (STAT3; topical administration): visibly reduced | phosphorylation of STAT3 in all cell types (STAT3; topical administration): inhibited | inhibition of ear swelling ([1]; systemic administration during the challenge phase, after sensitization phase complete (FIG. 1)): > 50% | histological analysis of hematoxolyin and eosin stained tissue sections [1, 5]: near complete inhibition of ear swelling | inhibition of ear swelling [1, 5]: 95% | inhibition of ear swelling ([1]; topical administration (3%, BID) during the challenge phase, after sensitization phase complete (FIG. 1)): > 50%

COc1cc2ncnc(Nc3ccc(O)c(Br)c3)c2cc1OC [WHI-P-154]
CD40-induced JAK3 activity, costimulatory molecule expression, IL-12 production, allogeneic stimulatory capacity [2]: prevented these effects

COc1cc2ncnc(Nc3ccc(O)cc3)c2cc1OC [JANEX-1]
onset of diabetes [3]: delayed the onset of diabetes

N#C/C(=C\c1ccc(O)c(O)c1)C(=O)NCc1ccccc1 [tyrphostin AG490]
JAK2 kinase activity and ERK2 and STAT3 phosphorylation [4]: inhibited | apoptosis [4]: induced | cell proliferation [4]: suppressed

Reference: US9879010B2, “Pyrrolo[2,3-b]pyridin-4-yl-amines and pyrrolo[2,3-b] pyrimidin-5-yl-amines as Janus kinase inhibitors” (Incyte Corporation, priority 2004, dated 2018)
